The results in this text go back to US20240269050A1, “ELECT[…] FOR DELIVERING A COMPOSITION COMPRISING AT LEAST ONE HYDROXY ACID COMPOUND” (L'OREAL, priority 2021, published 2024).

For the data set the following is noted: composition applied with electroporation (Fusion Meso Xpert, ftrain 0.4 Hz, negative polarity) compared with topical application of an identical composition; human skin sample; FIG. 5.

SMILES strings stand for the structures.

Description: To test the effect of the device, a sample of human skin is peripherally attached to a support, with the counterelectrode of the electroporation device placed between the inner face of the skin and the support. The electrode of the electroporation device is placed in contact with the outer face of the skin sample. The case of the electroporation device is immobilized by a support. The support is placed on an orbital shaker, so that the electrode moves over the surface of the skin.
The frequency (ftrain) with which the pulse trains follow each other is 0.4 Hz, the duration Ton ranges from 0.5 to 2 seconds, and the chosen polarity is negative, i.e. the electrode is at a negative potential with respect to the counterelectrode. The apparatus is used in the highest energy mode. […] The pulses of frequency fpulse are, for example, of maximum amplitude deltaV, within the pulse train, this amplitude deltaV being less than or equal to 30% of the voltage Vmean, as an absolute value.
The cosmetic compositions are applied before the apparatus is put in place.
Firstly, compositions 1 to 3 are applied topically, and secondly, the application of compositions 1 to 3 is combined with electroporation.
The skin is removed from the experimental system and then analysed to determine the amount of salicylic acid that has penetrated.

As to `O=C(O)c1ccccc1O` [salicylic acid], the “amount of salicylic acid that has penetrated” value is given as “much higher”.
